IC50 and Kd data for one compound are collected here from PMC12130801, “Restoration of the Tumor Suppressor Function of Y220C-Mutant p53 by Rezatapopt, a Small-Molecule Reactivator” (Cancer Discovery, 2025).

For assay [1], the system named is SNU-NCC-19. In words: cells. On the set-up: 5-day MTT proliferation assay, absorbance 570 nm, per cent viability of untreated cells, IC50 from XLfit. The settings on record: 120 h; 5-day MTT proliferation; read-out: PC14586 MTT IC50. As for the experimental part: (§1) The antiproliferative activity of compounds was evaluated using the MTT (Sigma-Aldrich, Cat. # M5655-1G) assay in a 96-well plate format. Cells were seeded at an appropriate density depending on the growth rate in 96-well microtiter plates, and compounds were tested at eight concentrations with 2-fold serial dilutions. Antiproliferative activity was assessed 5 days later by the conversion of the tetrazolium dye MTT (1 mg/mL) into insoluble formazan by viable cells, which was dissolved in ethanol and measured by a microplate reader for absorbance with a wavelength of 570 nm and a reference wavelength of 650 nm. The results were presented as a percentage of the viability of untreated cells (control). The IC50 was determined from the regression of a plot of the logarithm of concentration versus percentage of viability by XLfit IDBS. The data presented thus far indicate that PC14586 is a potent and selective reactivator of p53-Y220C with strong antiproliferative effects driven by cell-cycle arrest. To further investigate the selectivity and effects on proliferation following treatment with PC14586, additional p53-Y220C, p53 hotspot mutant, and p53-WT cell lines were assessed in a 5-day 3-[4,5-dimethylthiazol-2-yl]-2,5-diphenyl tetrazolium bromide (MTT) assay. […] The less sensitive p53-Y220C cell lines, TE-8 and HCC1419, have an additional p53 mutation. In the case of TE-8, the secondary mutation, M237I, is in the DBD of p53 and has been reported to interfere with p53 DNA binding ([36]). The spectrum of sensitivity to our compounds in cell lines with additional p53 mutations may indicate that monitoring second-site mutations and patient responses could yield mechanistic insights and potential biomarkers.

For assay [2], the system named is SU.86.86. In words: cells. On the set-up: 5-day MTT proliferation assay, absorbance 570 nm, per cent viability of untreated cells, IC50 from XLfit. The settings on record: Homo sapiens, SU.86.86, 120 h; 5-day MTT proliferation; read-out: PC14586 MTT IC50. As for the experimental part:
as §1

The test system of assay [3] is MFE-296#. As to the kind of experiment: cells. The arrangement: 5-day MTT proliferation assay, absorbance 570 nm, per cent viability of untreated cells, IC50 from XLfit. The settings on record: Homo sapiens, MFE-296, 120 h; 5-day MTT proliferation; read-out: PC14586 MTT IC50. As for the experimental part: as §1
For assay [4], the system named is TOV-112D. As to the kind of experiment: cells. On the set-up: 5-day MTT proliferation assay, absorbance 570 nm, per cent viability of untreated cells, IC50 from XLfit. The settings on record: Homo sapiens, TOV112D, 120 h; 5-day MTT proliferation; read-out: PC14586 MTT IC50. The method, then: as §1
Assay [5] has as its system SJSA-1. In words: cells. The arrangement: 5-day MTT proliferation assay, absorbance 570 nm, per cent viability of untreated cells, IC50 from XLfit. The settings on record: Homo sapiens, SJSA-1, 120 h; 5-day MTT proliferation; read-out: PC14586 MTT IC50. As for the experimental part:
as §1

In assay [6] the test system is EFE-184. In words: cells. The settings on record: Homo sapiens, EFE-184, 120 h; 5-day MTT proliferation; read-out: PC14586 MTT IC50. The arrangement: 5-day MTT proliferation assay, absorbance 570 nm, per cent viability of untreated cells, IC50 from XLfit. The method, then:
as §1

The subject of assay [7] is HCC2935. In words: cells. The settings on record: Homo sapiens, HCC2935, 120 h; 5-day MTT proliferation; read-out: PC14586 MTT IC50. The arrangement: 5-day MTT proliferation assay, absorbance 570 nm, per cent viability of untreated cells, IC50 from XLfit. The method, then: as §1
Assay [8] has as its system BxPC-3. In words: cells. The arrangement: 5-day MTT proliferation assay, absorbance 570 nm, per cent viability of untreated cells, IC50 from XLfit. The settings on record: Homo sapiens, BXPC-3, 120 h; 5-day MTT proliferation; read-out: PC14586 MTT IC50. As for the experimental part: as §1
The subject of assay [9] is HuH-7. As to the kind of experiment: cells. The arrangement: 5-day MTT proliferation assay, absorbance 570 nm, per cent viability of untreated cells, IC50 from XLfit. The settings on record: Homo sapiens, Huh-7, 120 h; 5-day MTT proliferation; read-out: PC14586 MTT IC50. As for the experimental part:
as §1

The subject of assay [10] is NUGC-3. As to the kind of experiment: cells. The arrangement: 5-day MTT proliferation assay, absorbance 570 nm, per cent viability of untreated cells, IC50 from XLfit. The settings on record: Homo sapiens, NUGC-3, 120 h; 5-day MTT proliferation; read-out: PC14586 MTT IC50. The method, then: as §1
Assay [11] concerns A-431. As to the kind of experiment: cells. The arrangement: 5-day MTT proliferation assay, absorbance 570 nm, per cent viability of untreated cells, IC50 from XLfit. The settings on record: Homo sapiens, A-431, 120 h; 5-day MTT proliferation; read-out: PC14586 MTT IC50. The method, then: as §1
Assay [12] has as its system SF-295. In words: cells. The arrangement: 5-day MTT proliferation assay, absorbance 570 nm, per cent viability of untreated cells, IC50 from XLfit. The settings on record: Homo sapiens, SF-295, 120 h; 5-day MTT proliferation; read-out: PC14586 MTT IC50. As for the experimental part:
as §1

Assay [13] concerns KON. As to the kind of experiment: cells. On the set-up: 5-day MTT proliferation assay, absorbance 570 nm, per cent viability of untreated cells, IC50 from XLfit. The settings on record: 120 h; 5-day MTT proliferation; read-out: PC14586 MTT IC50. As for the experimental part: as §1
Assay [14] deals with NUGC-3_KO. As to the kind of experiment: cells. On the set-up: 5-day MTT proliferation assay, absorbance 570 nm, per cent viability of untreated cells, IC50 from XLfit. The settings on record: 120 h; 5-day MTT proliferation; read-out: PC14586 MTT IC50. The method, then:
as §1

Assay [15] concerns T3M-4. As to the kind of experiment: cells. On the set-up: 5-day MTT proliferation assay, absorbance 570 nm, per cent viability of untreated cells, IC50 from XLfit. The settings on record: T3M4, 120 h; 5-day MTT proliferation; read-out: PC14586 MTT IC50. As for the experimental part: as §1
Assay [16] relates to TE-8#. As to the kind of experiment: cells. On the set-up: 5-day MTT proliferation assay, absorbance 570 nm, per cent viability of untreated cells, IC50 from XLfit. The settings on record: Homo sapiens, TE-8, 120 h; 5-day MTT proliferation; read-out: PC14586 MTT IC50. The method, then:
as §1

In assay [17] the test system is HCT 116. In words: cells. On the set-up: 5-day MTT proliferation assay, absorbance 570 nm, per cent viability of untreated cells, IC50 from XLfit. The settings on record: Homo sapiens, HCT-116, 120 h; 5-day MTT proliferation; read-out: PC14586 MTT IC50. As for the experimental part:
as §1

Assay [18] deals with C-33A. In words: cells. The arrangement: 5-day MTT proliferation assay, absorbance 570 nm, per cent viability of untreated cells, IC50 from XLfit. The settings on record: Homo sapiens, C-33-A, 120 h; 5-day MTT proliferation; read-out: PC14586 MTT IC50. As for the experimental part: as §1
Assay [19] relates to HCC1419#. As to the kind of experiment: cells. The arrangement: 5-day MTT proliferation assay, absorbance 570 nm, per cent viability of untreated cells, IC50 from XLfit. The settings on record: Homo sapiens, HCC1419, 120 h; 5-day MTT proliferation; read-out: PC14586 MTT IC50. As for the experimental part: as §1
Assay [20] has as its target T1, p53 Y220C mutant (Homo sapiens, UniProt P04637, Y220C).
T1 construct: gene TP53; Biotinylated DBD of p53-Y220C
As to the kind of experiment: SPR (Biacore 8K); also thermal shift and TR-FRET DNA binding. In general terms: In SPR one partner is held on a chip, and binding of the other changes the refractive index at the surface.

T1 sequence (P04637 94-312 limits assumed, stated change not applied): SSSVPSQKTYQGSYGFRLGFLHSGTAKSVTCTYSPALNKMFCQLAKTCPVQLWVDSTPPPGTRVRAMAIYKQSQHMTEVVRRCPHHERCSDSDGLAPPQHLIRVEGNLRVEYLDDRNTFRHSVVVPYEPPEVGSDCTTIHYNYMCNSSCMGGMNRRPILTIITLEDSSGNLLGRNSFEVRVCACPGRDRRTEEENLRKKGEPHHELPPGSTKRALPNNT

`CNC(=O)c1ccc(NCC#Cc2cc3c(N[C@@H]4CCN(C)C[C@@H]4F)cccc3n2CC(F)(F)F)c(OC)c1` [PC14586, rezatapopt]: the 50% inhibitory concentration (IC50) was 0.23 µM in assay [1]; 16.8 µM in assay [2]; 0.5 µM in assay [3]; 13 µM in assay [4]; > 20 µM in assay [5]; 12.5 µM in assay [6]. Also, the IC50 in assay [7] was 0.4 µM; in [8], 0.33 µM; in [9] it was 0.49 µM; in assay [10] it was 0.59 µM; in [11], 13.8 µM; in assay [12], 11.2 µM. Also, the IC50 is 1.05 µM in assay [13]; 15.5 µM in assay [14]; 1.81 µM in assay [15]; 8.66 µM in assay [16]; 19.3 µM in [17]; 18.5 µM in [18]. In addition, in assay [19], the IC50 was 4.87 µM. The Kd entry in assay [20] was “PC14374 and PC14586 both have low nmol/L SC150 and SPR Kd”.

One may read the IC50 as the point on the concentration scale where inhibition reaches its midpoint.
